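48-hour exposure; five concentrations; linearly interpolated endpoints. Here, GI50 denotes the concentration required for 50% inhibition of growth.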 Calls of active or inactive are those of the source. No stated cut-off is given here; in the data, active = GI50 up to about 1.1 µM and inactive = higher.
How the values were obtained:
Experiment in all cases: NCI anticancer screen, dose series, 48 h
ACHN = test system: ACHN
U-251 = test system: U-251
EKVX = test system: EKVX
LOX IMVI = test system: LOX IMVI
UACC-62 = test system: UACC-62
A549 = test system: A549
SR = test system: SR
786-0 = test system: 786-0
Hs-578T = test system: Hs-578T
CCRF-CEM = test system: CCRF-CEM
IGROV-1 = test system: IGROV-1
SF-539 = test system: SF-539
SNB-19 = test system: SNB-19
SW-620 = test system: SW-620
KM12 = test system: KM12
MDA-N = test system: MDA-N
Malme-3M = test system: Malme-3M
OVCAR-5 = test system: OVCAR-5
CAKI-1 = test system: CAKI-1
RXF 393 = test system: RXF 393

Structure (SMILES) | GI50 (ACHN) | GI50 (U-251) | GI50 (EKVX) | GI50 (LOX IMVI) | GI50 (UACC-62) | GI50 (A549) | GI50 (SR) | GI50 (786-0) | GI50 (Hs-578T) | GI50 (CCRF-CEM) | GI50 (IGROV-1) | GI50 (SF-539) | GI50 (SNB-19) | GI50 (SW-620) | GI50 (KM12) | GI50 (MDA-N) | GI50 (Malme-3M) | GI50 (OVCAR-5) | GI50 (CAKI-1) | GI50 (RXF 393)
COc1cccc(CCn2c(N)c(-c3ccccc3)c3ccc([N+](=O)[O-])cc3c2=O)c1 | 5.25 µM (inactive) | 9.29 µM (inactive) | 12.3 µM (inactive) | 2.43 µM (inactive) | 11.9 µM (inactive) | 9.62 µM (inactive) | 6.61 µM (inactive) | 6.25 µM (inactive) | 1.85 µM (inactive) | 11.4 µM (inactive) | 5.6 µM (inactive) | 2.51 µM (inactive) | 16 µM (inactive) | 25.7 µM (inactive) | 4.36 µM (inactive) | 17.5 µM (inactive) | 14.2 µM (inactive) | 14.3 µM (inactive) | 6.3 µM (inactive) | 
CCCCOC(=O)C(=O)C(CC(CC)C(=O)c1ccccc1)C(=O)C=C(C)C (centres undefined) | > 100 µM (inactive) | > 100 µM (inactive) | > 100 µM (inactive) | > 100 µM (inactive) | > 100 µM (inactive) | > 100 µM (inactive) |  | > 100 µM (inactive) | > 100 µM (inactive) | > 100 µM (inactive) | > 100 µM (inactive) | > 100 µM (inactive) | > 100 µM (inactive) | > 100 µM (inactive) | > 100 µM (inactive) | > 100 µM (inactive) |  | > 100 µM (inactive) | > 100 µM (inactive) | > 100 µM (inactive)
O=C(c1cccc(OCc2ccccc2)c1OCc1ccccc1)N1CCSC1=S | 33.8 µM (inactive) | 29.1 µM (inactive) | 37.8 µM (inactive) | 34.2 µM (inactive) | 19.2 µM (inactive) | 23.7 µM (inactive) | 8.36 µM (inactive) | 42.8 µM (inactive) | 2.29 µM (inactive) | 5.05 µM (inactive) | 28.6 µM (inactive) | 33.3 µM (inactive) | > 46.6 µM (inactive) | 43.4 µM (inactive) | 5.13 µM (inactive) | 27.9 µM (inactive) | 23.6 µM (inactive) | 71.3 µM (inactive) | 31 µM (inactive) | 
O=C(/C=C\c1ccc([N+](=O)[O-])cc1)c1ccccc(=O)c1O | 1.01 µM (active) | 1.01 µM (active) | 1.81 µM (inactive) | 0.449 µM (active) | 1.14 µM (inactive) | 0.51 µM (active) |  | 0.769 µM (active) | 3.88 µM (inactive) | < 0.0319 µM (active) | 1.14 µM (inactive) |  | 4.65 µM (inactive) | 1.3 µM (inactive) | 1.04 µM (active) | 2.37 µM (inactive) | 0.873 µM (active) | 2.55 µM (inactive) | 1.32 µM (inactive) | 
CCCCCC1=C2C(c3ccc(OC)cc3)=C(N)C(c3ccc(OC)cc3)=C3NC(=O)C(C=C1)C32 (centres undefined) | > 100 µM (inactive) | 98.2 µM (inactive) | 92.3 µM (inactive) | 33.9 µM (inactive) | 53.1 µM (inactive) | 29.7 µM (inactive) |  | 25 µM (inactive) |  | 32.6 µM (inactive) | 28.1 µM (inactive) |  | 25.4 µM (inactive) | 49.2 µM (inactive) | 59.6 µM (inactive) | 61.4 µM (inactive) | 19.5 µM (inactive) | > 100 µM (inactive) | 36 µM (inactive) | 18.9 µM (inactive)
C1CC[C@H]2SSC3CCCC[C@H]3SSC2C1 (some centres undefined) |  | > 100 µM (inactive) | > 100 µM (inactive) | > 100 µM (inactive) | > 100 µM (inactive) | > 100 µM (inactive) | > 100 µM (inactive) | > 100 µM (inactive) |  | > 100 µM (inactive) | > 100 µM (inactive) | > 100 µM (inactive) | > 100 µM (inactive) | > 100 µM (inactive) | > 100 µM (inactive) | > 100 µM (inactive) |  | > 100 µM (inactive) |  | 
COC(=O)C1Cc2ccc(C)cc2C1=O (centres undefined) | > 100 µM (inactive) | > 100 µM (inactive) | > 100 µM (inactive) | > 100 µM (inactive) | > 100 µM (inactive) | > 100 µM (inactive) | > 100 µM (inactive) | > 100 µM (inactive) | > 100 µM (inactive) | > 100 µM (inactive) | > 100 µM (inactive) | > 100 µM (inactive) | > 100 µM (inactive) | > 100 µM (inactive) | 83.4 µM (inactive) | > 100 µM (inactive) | > 100 µM (inactive) | > 100 µM (inactive) | > 100 µM (inactive) | 
CC(C)(C)CNCCO | > 100 µM (inactive) | > 100 µM (inactive) | > 100 µM (inactive) | > 100 µM (inactive) | > 100 µM (inactive) | > 100 µM (inactive) |  | > 100 µM (inactive) | > 100 µM (inactive) | > 100 µM (inactive) | > 100 µM (inactive) | > 100 µM (inactive) | > 100 µM (inactive) | > 100 µM (inactive) | > 100 µM (inactive) | > 100 µM (inactive) | > 100 µM (inactive) | > 100 µM (inactive) | > 100 µM (inactive) | > 100 µM (inactive)
CCOC(=O)Cc1csc2[n+]1C(=O)/C(=C\c1cccc(Cl)c1Cl)S2 | 17.9 µM (inactive) | 16.6 µM (inactive) | 17.2 µM (inactive) | 18.4 µM (inactive) | 4.94 µM (inactive) | 14.8 µM (inactive) |  | 15.8 µM (inactive) | 29.5 µM (inactive) | 12.7 µM (inactive) | 20.1 µM (inactive) | 22.3 µM (inactive) | 21 µM (inactive) | 18.6 µM (inactive) | 15.4 µM (inactive) | 17.7 µM (inactive) |  | 32.6 µM (inactive) | 23.6 µM (inactive) | 16.7 µM (inactive)
C[C@@H]1OC(=O)C[C@H]2CC(=O)N(CCC3CN(C(=O)c4ccccc4)c4ccccc43)C[C@@H]21 (some centres undefined) | > 100 µM (inactive) | > 100 µM (inactive) | > 100 µM (inactive) |  | > 100 µM (inactive) | > 100 µM (inactive) |  | > 100 µM (inactive) | > 100 µM (inactive) |  | > 100 µM (inactive) |  | > 100 µM (inactive) | > 100 µM (inactive) | > 100 µM (inactive) | > 100 µM (inactive) | > 100 µM (inactive) | > 100 µM (inactive) | > 100 µM (inactive) | > 100 µM (inactive)
N#Cc1ccc(OCc2nc3cc(C(F)(F)F)ccc3nc2-c2ccccc2)cc1 | > 100 µM (inactive) | > 100 µM (inactive) | 41.2 µM (inactive) | > 100 µM (inactive) | > 100 µM (inactive) | > 100 µM (inactive) | 70.5 µM (inactive) | > 100 µM (inactive) | > 100 µM (inactive) | 57.7 µM (inactive) | > 100 µM (inactive) | > 100 µM (inactive) | > 100 µM (inactive) | > 100 µM (inactive) | > 100 µM (inactive) | > 100 µM (inactive) | > 100 µM (inactive) | > 100 µM (inactive) | > 100 µM (inactive) | 
Cc1c(CNc2ccc(Cl)c(C(=O)NC(CC(=O)O)C(=O)O)c2)ccc2nc(N)nc(N)c12 (centres undefined) | 0.0262 µM (active) | 0.134 µM (active) | 8.15 µM (inactive) | < 0.0118 µM (active) | 0.0501 µM (active) | 1.33 µM (inactive) |  | < 0.01 µM (active) | 506 µM (inactive) | 0.0753 µM (active) | 0.0715 µM (active) | 2.62 µM (inactive) | 0.322 µM (active) | < 0.0175 µM (active) | 0.106 µM (active) | < 0.01 µM (active) | 121 µM (inactive) | 1.4 µM (inactive) | < 0.0311 µM (active) | > 39.4 µM (inactive)
O=C(O)C1C2OC(C(Br)C2Br)C1C(=O)O (centres undefined) | > 100 µM (inactive) | > 100 µM (inactive) | > 100 µM (inactive) | > 100 µM (inactive) | > 100 µM (inactive) | > 100 µM (inactive) |  | > 100 µM (inactive) | 24.7 µM (inactive) |  | > 100 µM (inactive) | > 100 µM (inactive) | > 100 µM (inactive) | > 100 µM (inactive) | > 100 µM (inactive) | > 100 µM (inactive) | > 100 µM (inactive) | > 100 µM (inactive) | > 100 µM (inactive) | > 100 µM (inactive)
COc1cc2nc(Nc3cccc(Br)c3)nc(Nc3cccc(Br)c3)c2cc1OC | 16 µM (inactive) | 19.2 µM (inactive) | 19.1 µM (inactive) | 16.7 µM (inactive) | 18.8 µM (inactive) | 17.3 µM (inactive) |  | 17.3 µM (inactive) | 19.8 µM (inactive) | 22.2 µM (inactive) | 15.1 µM (inactive) |  | 16.8 µM (inactive) | 24.2 µM (inactive) | 18.9 µM (inactive) | 18.7 µM (inactive) | 19.1 µM (inactive) | 23.1 µM (inactive) | 15.7 µM (inactive) | 18.4 µM (inactive)
O=C(Nc1ccccc1)N(C1=NCC(CI)S1)c1ccc(F)c(F)c1 (centres undefined) | 49.4 µM (inactive) | 54.1 µM (inactive) | > 100 µM (inactive) | 15.2 µM (inactive) |  | 26.4 µM (inactive) | 23.8 µM (inactive) | 43.2 µM (inactive) | 64 µM (inactive) | 19.3 µM (inactive) | 38.8 µM (inactive) | 33.2 µM (inactive) | > 100 µM (inactive) | 28.2 µM (inactive) | 32.6 µM (inactive) | 24.6 µM (inactive) | 55.7 µM (inactive) | > 100 µM (inactive) | 24.1 µM (inactive) | 

— ChEMBL document CHEMBL1201862, “PubChem BioAssay data set” (2004)
